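GI50: concentration for 50% inhibition of growth. TGI: total growth inhibition.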
Assays:
Experiment in all cases: NCI anticancer screen, dose series, 384-well format
[1] = tested on: 786-0 renal
[2] = tested on: A498 renal
[3] = tested on: A549 NSCLC
[4] = tested on: ACHN renal
[5] = tested on: BT-549 breast
[6] = tested on: CAKI-1 renal
[7] = tested on: COLO 205 colon
[8] = tested on: DU-145 prostate
[9] = tested on: EKVX NSCLC
[10] = tested on: HCC-2998 colon
[11] = tested on: HCT-116 colon
[12] = tested on: HCT-15 colon
[13] = tested on: HL-60(TB) leukemia
[14] = tested on: HOP-62 NSCLC
[15] = tested on: HOP-92 NSCLC
[16] = tested on: HS 578T breast
[17] = tested on: HT29 colon
[18] = tested on: IGROV1 ovarian
[19] = tested on: KM12 colon
[20] = tested on: LOX IMVI melanoma
[21] = tested on: M14 melanoma
[22] = tested on: MALME-3M melanoma
[23] = tested on: MCF7 breast
[24] = tested on: MDA-MB-231 breast
[25] = tested on: MDA-MB-435 melanoma
[26] = tested on: MDA-MB-468 breast
[27] = tested on: MOLT-4 leukemia
[28] = tested on: NCI-H226 lung
[29] = tested on: NCI-H23 lung
[30] = tested on: NCI-H322M lung
[31] = tested on: NCI-H460 NSCLC
[32] = tested on: NCI-H522 lung
[33] = tested on: NCI/ADR-RES ovarian
[34] = tested on: OVCAR-3 ovarian
[35] = tested on: OVCAR-4 ovarian
[36] = tested on: OVCAR-5 ovarian
[37] = tested on: OVCAR-8 ovarian
[38] = tested on: PC-3 prostate
[39] = tested on: RPMI-8226 leukemia
[40] = tested on: RXF 393 renal
[41] = tested on: SF-268 CNS
[42] = tested on: SF-295 CNS
[43] = tested on: SF-539 CNS
[44] = tested on: SK-MEL-28 melanoma
[45] = tested on: SK-MEL-5 melanoma
[46] = tested on: SK-OV-3 ovarian
[47] = tested on: SN12C renal
[48] = tested on: SNB-19 CNS
[49] = tested on: SNB-75 CNS
[50] = tested on: SR leukemia
[51] = tested on: T-47D breast
[52] = tested on: TK-10 renal
[53] = tested on: U251 glioblastoma
[54] = tested on: UACC-257 melanoma
[55] = tested on: UACC-62 melanoma
[56] = tested on: UO-31 renal

SMILES: COc1cc2c(Nc3ccc(Br)cc3F)ncnc2cc1OCC1CCN(C)CC1
- GI50 [1]: 1370 nM
- TGI [1]: 2870 nM
- GI50 [2]: 1440 nM
- TGI [2]: 3340 nM
- GI50 [3]: 2070 nM
- TGI [3]: 11200 nM
- GI50 [4]: 553 nM
- TGI [4]: 3910 nM
- GI50 [5]: 2240 nM
- TGI [5]: 5060 nM
- GI50 [6]: 1230 nM
- TGI [6]: 2550 nM
- GI50 [7]: 2350 nM
- TGI [7]: 6010 nM
- GI50 [8]: 2220 nM
- TGI [8]: 12400 nM
- GI50 [9]: 943 nM
- TGI [9]: 8630 nM
- GI50 [10]: 2390 nM
- TGI [10]: 5590 nM
- GI50 [11]: 3100 nM
- TGI [11]: 10700 nM
- GI50 [12]: 1980 nM
- TGI [12]: 5360 nM
- GI50 [13]: 2090 nM
- TGI [13]: 3530 nM
- GI50 [14]: 2770 nM
- TGI [14]: 10400 nM
- GI50 [15]: 1370 nM
- TGI [15]: 2840 nM
- GI50 [16]: 1520 nM
- TGI [16]: 2920 nM
- GI50 [17]: 1780 nM
- TGI [17]: 3610 nM
- GI50 [18]: 262 nM
- TGI [18]: 1040 nM
- GI50 [19]: 5900 nM
- TGI [19]: 17400 nM
- GI50 [20]: 2040 nM
- TGI [20]: 4240 nM
- GI50 [21]: 1980 nM
- TGI [21]: 3420 nM
- GI50 [22]: 1770 nM
- TGI [22]: 3160 nM
- GI50 [23]: 2780 nM
- TGI [23]: 11100 nM
- GI50 [24]: 1870 nM
- TGI [24]: 4300 nM
- GI50 [25]: 2590 nM
- TGI [25]: 4420 nM
- GI50 [26]: 551 nM
- TGI [26]: 1920 nM
- GI50 [27]: 1920 nM
- TGI [27]: 5650 nM
- GI50 [28]: 1300 nM
- TGI [28]: 5470 nM
- GI50 [29]: 3380 nM
- TGI [29]: 15500 nM
- GI50 [30]: 298 nM
- TGI [30]: 900 nM
- GI50 [31]: 4660 nM
- TGI [31]: 16000 nM
- GI50 [32]: 616 nM
- TGI [32]: 2530 nM
- GI50 [33]: 2240 nM
- TGI [33]: 6430 nM
- GI50 [34]: 1050 nM
- TGI [34]: 4520 nM
- GI50 [35]: 2300 nM
- TGI [35]: 10200 nM
- GI50 [36]: 2190 nM
- TGI [36]: 11500 nM
- GI50 [37]: 2540 nM
- TGI [37]: 7230 nM
- GI50 [38]: 3460 nM
- TGI [38]: 18400 nM
- GI50 [39]: 2840 nM
- TGI [39]: 6120 nM
- GI50 [40]: 836 nM
- TGI [40]: 2480 nM
- GI50 [41]: 2460 nM
- TGI [41]: 7050 nM
- GI50 [42]: 66600 nM
- TGI [42]: > 100000 nM
- GI50 [43]: 2640 nM
- TGI [43]: 8640 nM
- GI50 [44]: 1710 nM
- TGI [44]: 3110 nM
- GI50 [45]: 1540 nM
- TGI [45]: 3020 nM
- GI50 [46]: 1930 nM
- TGI [46]: 6310 nM
- GI50 [47]: 2330 nM
- TGI [47]: 16300 nM
- GI50 [48]: 10600 nM
- TGI [48]: > 100000 nM
- GI50 [49]: 1570 nM
- TGI [49]: 3610 nM
- GI50 [50]: 3540 nM
- TGI [50]: 5010 nM
- GI50 [51]: 1330 nM
- TGI [51]: 8790 nM
- GI50 [52]: 1980 nM
- TGI [52]: 5100 nM
- GI50 [53]: 4460 nM
- TGI [53]: 17100 nM
- GI50 [54]: 1900 nM
- TGI [54]: 3320 nM
- GI50 [55]: 1830 nM
- TGI [55]: 3370 nM
- GI50 [56]: 1160 nM
- TGI [56]: 2460 nM
